Laboratory results taken from patent US20200069775A1, “BRAIN OSTEOCALCIN RECEPTOR AND COGNITIVE DISORDERS” (The Trustees of Columbia University in the City of New York, priority 2017, published 2020).

System: Tph2, Th, Gad1 expression in brainstem and midbrain explants
Test: Gene expression (qPCR) in brainstem and midbrain explants
Type: cell-based, mouse
Procedure: For gene expression studies, RNA was isolated from primary neurons or tissue using TRIZOL® (Invitrogen). cDNA synthesis was performed following a standard protocol from Invitrogen and qPCR analyses were done using specific quantitative PCR primers from SABiosciences (http://www.sabiosciences.com/RT2PCR.php).
Brains were dissected and incubated for 30 minutes in ice cold oxygenated artificial cerebrospinal fluid (ACSF). Brains were then sliced at 500 μm at the midbrain, −1.55 to −2.35 mm from the bregma, and at the level of the brainstem, from −4.04 to −4.48 mm and from −4.60 to −5.20 mm from the bregma, to include the median and dorsal raphe, respectively. These slices were incubated in ACSF for 1 h, constantly oxygenated (95% O2 and 5% CO2) […], after which they were treated with either osteocalcin (10 ng/ml) or PBS for four hours. Expression of Tph2, TH, GAD 1, GAD2, and Ddc was measured by qPCR.
To determine if osteocalcin acts directly on neurons to modulate neurotransmitter synthesis, several types of assays were performed. First, brainstem and midbrain explants from WT and Gprc6a^−/− mice were generated. Brains were sliced (500 μm) at the level of the median and dorsal raphe of the brainstem (from −4.04 to −4.48 mm and from −4.60 to −5.20 mm, respectively), so that they would be enriched in serotonin-producing neurons, as well as at the level of substantia nigrae and ventral tegmental areas (VTA) of the midbrain (from −1.55 to −2.35 mm and from −2.55 to −3.25 mm, respectively). Enrichment in serotoninergic and catecholaminergic neurons in these explants was verified by their high Tph2 and Th expression. While leptin, used here as a positive control, reduced, as it should, Tph2 expression in WT or Gprc6a^−/− brainstem explants, osteocalcin ([…]) increased expression of this gene 2.5 fold in both WT and Gprc6a^−/− explants. (FIG. 3D). […] Third, to further confirm that osteocalcin signals in neurons of the hindbrain, calcium flux in MPHN treated with undercarboxylated or carboxylated osteocalcin (FIG. 3F) was measured.

Q: Which results are given for “osteocalcin: Recombinant osteocalcin bacterially produced, cleaved from the GST subunit; completely undercarboxylated at all three sites; full-length mouse osteocalcin (YLGASVPSPDPLEPTREQCELNPACDELSDQYGLKTAYKRIYGITI)”?
A: Gad1 expression (WT and Gprc6a−/− hindbrain explants): decreased Gad1 expression; Th expression (midbrain explants): increased Th expression; increase of Tph2 expression (osteocalcin 3 ng/ml, WT and Gprc6a−/− brainstem explants): 2.5 fold
